Test results from the NIST ThermoML archive (doi:10.1021/je100407f).
“And” between values parts separate entries of the source, which are not always exact repeats. Equal entries are not always repeated. Numbers after ± are expanded uncertainties.

Conditions: 101 kPa, Liquid mixture 1, Ring tensiometer

Row | Compound | interfacial tension (283.15 K) [mN/m] | interfacial tension (293.15 K) [mN/m] | interfacial tension (303.15 K) [mN/m] | interfacial tension (313.15 K) | interfacial tension (323.15 K) [mN/m] | interfacial tension (333.15 K) [mN/m]
1 | CCCCn1cc[n+](C)c1.F[P-](F)(F)(F)(F)F [1-butyl-3-methylimidazolium hexafluorophosphate] + CCCCCCC | 14.81 ± 0.32 | 14.69 ± 0.32 | 14.67 ± 0.32 | 14.59 ± 0.32 mN/m | 14.5 ± 0.32 | 14.41 ± 0.32
2 | CCCCCCn1cc[n+](C)c1.F[P-](F)(F)(F)(F)F [1-hexyl-3-methylimidazolium hexafluorophosphate] + CCCCCC | 9.01 ± 0.26 | 8.9 ± 0.26 | 8.83 ± 0.26 | 8.84 ± 0.26 mN/m | 8.73 ± 0.26 | 8.68 ± 0.26
3 | CCCCCCn1cc[n+](C)c1.F[P-](F)(F)(F)(F)F [1-hexyl-3-methylimidazolium hexafluorophosphate] + CCCCCCC | 8.86 ± 0.26 | 8.74 ± 0.26 | 8.73 ± 0.26 | 8.69 ± 0.26 mN/m | 8.54 ± 0.26 | 8.47 ± 0.26
4 | CCCCCn1cc[n+](C)c1.F[P-](F)(F)(F)(F)F [1-methyl-3-pentylimidazolium hexafluorophosphate] + CCCCCC | 12.37 ± 0.3 | 11.92 ± 0.29 | – | 12 ± 0.29 mN/m and 11.93 ± 0.29 mN/m | 11.78 ± 0.29 | 11.67 ± 0.29
5 | CCCCCn1cc[n+](C)c1.F[P-](F)(F)(F)(F)F [1-methyl-3-pentylimidazolium hexafluorophosphate] + CCCCCCC | 12.23 ± 0.3 | 12.12 ± 0.29 | 12.02 ± 0.29 | 11.9 ± 0.29 mN/m | 11.63 ± 0.29 | 11.53 ± 0.29
6 | CCCCCCCC[n+]1ccn(C)c1.F[P-](F)(F)(F)(F)F [1-octyl-3-methylimidazolium hexafluorophosphate] + CCCCCC | 4.89 ± 0.23 | 4.77 ± 0.23 | 4.66 ± 0.23 | 4.52 ± 0.22 mN/m | 4.45 ± 0.22 | 4.46 ± 0.22
